The record followed here is PMC11509018, “Evaluation of the Role of Tanshinone I in an In Vitro System of Charcot-Marie-Tooth Disease Type 2N” (International Journal of Molecular Sciences, 2024).

Test [1] addresses T1, AlaRS^N71Y (Homo sapiens, UniProt P49588, N71Y).
T1 construct: made in house; host or cells: E. coli BL21 (DE3), pET-21a
T1 sequence (P49588 1-968 N71Y): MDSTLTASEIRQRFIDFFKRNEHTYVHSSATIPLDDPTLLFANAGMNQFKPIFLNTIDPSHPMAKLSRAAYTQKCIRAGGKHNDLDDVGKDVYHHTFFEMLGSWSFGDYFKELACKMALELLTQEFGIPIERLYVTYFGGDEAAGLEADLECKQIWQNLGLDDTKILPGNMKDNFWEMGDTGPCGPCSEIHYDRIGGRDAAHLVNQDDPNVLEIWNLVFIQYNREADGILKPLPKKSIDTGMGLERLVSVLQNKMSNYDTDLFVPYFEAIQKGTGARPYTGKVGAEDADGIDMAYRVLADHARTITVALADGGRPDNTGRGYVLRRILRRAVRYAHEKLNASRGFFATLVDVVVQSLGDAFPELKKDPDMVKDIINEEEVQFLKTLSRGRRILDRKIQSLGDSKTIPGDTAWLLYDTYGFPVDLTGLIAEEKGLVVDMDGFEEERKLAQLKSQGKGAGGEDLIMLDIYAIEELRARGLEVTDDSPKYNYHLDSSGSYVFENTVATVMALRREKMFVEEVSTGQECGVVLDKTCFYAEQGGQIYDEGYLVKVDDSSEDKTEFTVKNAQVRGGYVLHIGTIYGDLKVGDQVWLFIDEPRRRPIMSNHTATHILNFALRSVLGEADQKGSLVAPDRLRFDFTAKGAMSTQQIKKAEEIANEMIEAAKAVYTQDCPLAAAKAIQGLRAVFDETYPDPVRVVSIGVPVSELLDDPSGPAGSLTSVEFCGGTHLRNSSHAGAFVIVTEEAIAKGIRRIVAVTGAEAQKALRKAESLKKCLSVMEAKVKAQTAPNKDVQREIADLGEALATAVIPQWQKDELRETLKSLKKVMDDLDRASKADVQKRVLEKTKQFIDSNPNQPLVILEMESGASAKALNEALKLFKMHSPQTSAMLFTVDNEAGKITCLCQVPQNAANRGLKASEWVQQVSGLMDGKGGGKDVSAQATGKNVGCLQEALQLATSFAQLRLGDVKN
Briefly: Proteolytic digestion assay (trypsin, SDS-PAGE). As to conditions: three hours. From the text: (§1) Furthermore, we examined the interaction of Tanshinone I with additional AlaRS CMT mutants capable of binding to Nrp1 and causing conformational changes by BLI and proteolysis assays on additional related mutants.
(§2) Figure 5 BLI and proteolytic digestion assay of AlaRS mutants with Tanshinone I. Binding sensorgrams for the interaction of Tanshinone I with immobilized AlaRS^R329H (A), AlaRS^G102R (C), AlaRS^R326W (E), and AlaRS^E337K (G). Each sensorgram contains five curves generated from five different concentrations. The KD values are presented as the mean ± SD and experiments were performed in triplicate. The AlaRS^N71Y (B), AlaRS^G102R (D), AlaRS^R326W (F), and AlaRS^E337K (H) proteins (in the presence and absence of Tanshinone I) were incubated with trypsin at different concentrations for three hours before the reactions were quenched, and the products were separated by SDS-PAGE.

The target in test [2] is T2, AlaRS^E337K (Homo sapiens, UniProt P49588, E337K).
T2 construct: made in house; host or cells: E. coli BL21 (DE3), pET-21a
T2 sequence (P49588 1-968 E337K): T1 sequence (P49588 1-968 N71Y) with Y71N, E337K
Description: Proteolytic digestion assay (trypsin, SDS-PAGE). The settings on record: three hours.
Text: as §1, §2

Numbering of substitutions follows the chain as printed.

As for `Cc1coc2c1C(=O)C(=O)c1c-2ccc2c(C)cccc12` [Tanshinone I], the “Effect on proteolytic fragments / conformation” value in test [1] is “significant conformational change”; in test [2], “altered band patterns after Tanshinone I treatment”.
